Experimental data: US7102009B2, “Substituted amine derivatives and methods of use” (Amgen Inc., priority 2001, dated 2006)

Tested on: Human Umbilical Vein Endothelial cells (VEGF-stimulated HUVEC proliferation)
Assay: HUVEC Proliferation Assay (VEGF-stimulated)
Type: cell-based
Conditions: VEGF 50 ng/mL, 72 h incubation, CyQuant readout, read-out: inhibited VEGF-stimulated HUVEC proliferation at a level below (IC50)
Method: Human Umbilical Vein Endothelial cells are purchased from Clonetics, Inc., as cryopreserved cells harvested from a pool of donors. These cells, at passage 1, are thawed and expanded in EBM-2 complete medium, until passage 2 or 3. The cells are trypsinized, washed in DMEM+10% FBS+antibiotics, and spun at 1000 rpm for 10 min. Prior to centrifugation of the cells, a small amount is collected for a cell count. After centrifugation, the medium is discarded, and the cells are resuspended in the appropriate volume of DMEM+10% FBS+antibiotics to achieve a concentration of 3×10^5 cells/mL. Another cell count is performed to confirm the cell concentration. The cells are diluted to 3×10^4 cells/mL in DMEM+10% FBS+antibiotics, and 100 μL of cells are added to a 96-well plate. The cells are incubated at 37° C. for 22 h.
Prior to the completion of the incubation period, compound dilutions are prepared. Five-point, five-fold serial dilutions are prepared in DMSO, at concentrations 400-fold greater than the final concentrations desired. 2.5 μL of each compound dilution are diluted further in a total of 1 mL DMEM+10% FBS+antibiotics (400× dilution). Medium containing 0.25% DMSO is also prepared for the 0 μM compound sample. At the 22-hour timepoint, the medium is removed from the cells, and 100 μL of each compound dilution is added. The cells are incubated at 37° C. for 2-3 h.
During the compound pre-incubation period, the growth factors are diluted to the appropriate concentrations. Solutions of DMEM+10% FBS+antibiotics, containing either VEGF or bFGF at the following concentrations: 50, 10, 2, 0.4, 0.08, and 0 ng/mL are prepared. For the compound-treated cells, solutions of VEGF at 550 ng/mL or bFGF at 220 ng/mL for 50 ng/mL or 20 ng/mL final concentrations, respectively, are prepared since 10 μL of each will be added to the cells (110 μL final volume). At the appropriate time after adding the compounds, the growth factors are added. VEGF is added to one set of plates, while bFGF is added to another set of plates. For the growth factor control curves, the media on wells B4-G6 of plates 1 and 2 are replaced with media containing VEGF or bFGF at the varying concentrations (50-0 ng/mL). The cells are incubated at 37° C. for an additional 72 h.
At the completion of the 72 h incubation period, the medium is removed, and the cells are washed twice with PBS. After the second wash with PBS, the plates are tapped gently to remove excess PBS, and the cells are placed at −70° C. for at least 30 min. The cells are thawed and analyzed using the CyQuant fluorescent dye (Molecular Probes C-7026), following the manufacturer's recommendations. The plates are read on a Victor/Wallac 1420 workstation at 485 nm/530 nm (excitation/emission). Raw data are collected and analyzed using a 4-parameter fit equation in XLFit. IC50 values are then determined.

SMILES	IC50 [nM]
COc1ccc(NC(=O)c2cccnc2Nc2ccc3cn[nH]c3c2)cc1OC1CCN(C)CC1 [Example 38, [2-(1H-Indazol-6-ylamino)(3-pyridyl)]-N-[4-methoxy-3-(1-methyl(4-piperidyl)oxy)phenyl]carboxamide]	< 50
CC(=O)N1CC(C)(C)Oc2ccc(NC(=O)c3cccnc3Nc3ccc4cn[nH]c4c3)cc21 [Example 89, N-(4-Acetyl-2,2-dimethyl-3,4-dihydro-2H-benzo[1,4]oxazin-6-yl)-2-(1H-indazol-6-ylamino)-nicotinamide]	< 50
O=C(Nc1cc(NC(=O)c2cccnc2Nc2ccc3cn[nH]c3c2)cc(C(F)(F)F)c1)O[C@H]1CCOC1 [Example 581, (3S)-Tetrahydro-3-furanyl 3-(((2-(1H-indazol-6-ylamino)-3-pyridinyl)carbonyl)amino)-5-(trifluoromethyl)phenylcarbamate]	< 50
CC1(C)NS(=O)(=O)c2cc(NC(=O)c3cccnc3Nc3ccc4cn[nH]c4c3)ccc21 [Example 76, N-(3,3-Dimethyl-1,1-dioxo-2,3-dihydro-1H-116-benzo[d]isothiazol-6-yl)-2-(1H-indazol-6-ylamino)-nicotinamide]	< 50
CC(C)c1ccc(NC(=O)c2ccc(F)nc2Nc2ccc3cn[nH]c3c2)cc1 [Example 67, [6-Fluoro-2-(1H-indazol-6-ylamino)(3-pyridyl)]-N-[4-(methylethyl)phenyl]carboxamide]	< 50
O=C(Nc1cccc(C(F)(F)F)c1)c1ccc(F)nc1Nc1ccc2cn[nH]c2c1 [Example 68, [6-Fluoro-2-(1H-indazol-6-ylamino)(3-pyridyl)]-N-[3-(trifluoromethyl)phenyl]carboxamide]	< 50
CS(=O)(=O)c1ccc(NC(=O)c2cccnc2Nc2ccc3cn[nH]c3c2)cc1 [Example 46, [2-(1H-Indazol-6-ylamino)(3-pyridyl)]-N-[4-(methylsulfonyl)phenyl]carboxamide]	< 50
CC1(C)CN(C(=O)[C@@H]2CCCN2)c2cc(NC(=O)c3cccnc3Nc3ccc4cn[nH]c4c3)ccc21 [Example 631, N-[3,3-Dimethyl-1-(pyrrolidine-2-carbonyl)-2,3-dihydro-1H-indol-6-yl]-2-(1H-indazol-6-ylamino)-nicotinamide]	< 50
Cc1cc(=O)[nH]c2cc(NC(=O)c3cccnc3Nc3ccc4cn[nH]c4c3)ccc12 [Example 14, [2-(1H-Indazol-6-ylamino)(3-pyridyl)]-N-(4-methyl-2-oxo-1,2-dihydroquinol-7-yl)carboxamide]	< 50
CC(C)N1CCC[C@H]1COc1cc(NC(=O)c2cccnc2Nc2ccc3cn[nH]c3c2)cc(C(F)(F)F)c1 [Example 583, 2-(1H-Indazol-6-ylamino)-N-(3-((((2S)-1-(1-methylethyl)-2-pyrrolidinyl)methyl)oxy)-5-(trifluoromethyl)phenyl)-3-pyridinecarboxamide]	< 50
CN1CCC(Cc2cc(NC(=O)c3cccnc3Nc3ccc4cn[nH]c4c3)cc(C(F)(F)F)c2)CC1 [Example 72, 2-(1H-Indazol-6-ylamino)-N-[3-(1-methyl-piperidin-4-ylmethyl)-5-trifluoromethyl-phenyl]-nicotinamide]	< 50
CCC(C)c1ccc(NC(=O)c2cccnc2Nc2ccc3cn[nH]c3c2)cc1 (centres unmarked) [Example 7, [2-(1H-Indazol-6-ylamino)(3-pyridyl)]-N-[4-(methylpropyl)phenyl]carboxamide]	< 50
O=C(Nc1ccc(C(F)(F)C(F)(F)C(F)(F)C(F)(F)F)cc1)c1cccnc1Nc1ccc2cn[nH]c2c1 [Example 20, [2-(1H-Indazol-6-ylamino)(3-pyridyl)]-N-[4-(1,1,2,2,3,3,4,4,4-nonafluorobutyl)phenyl]carboxamide]	< 50
O=C(Nc1cc(OC[C@@H]2CCCN2)cc(C(F)(F)F)c1)c1cccnc1Nc1ccc2cn[nH]c2c1 [Example 97, 2-(1H-Indazol-6-ylamino)-N-[3-(2S-pyrrolidin-2-ylmethoxy)-5-trifluoromethyl-phenyl]-nicotinamide]	< 50
CN1CCN(Cc2cc(NC(=O)c3cccnc3Nc3ccc4cn[nH]c4c3)ccc2C(F)(F)C(F)(F)F)CC1 [Example 108, 2-(1H-Indazol-6-ylamino)-N-[3-(4-methyl-piperazin-1-ylmethyl)-4-pentafluoroethyl-phenyl]-nicotinamide]	< 50
O=C(Nc1ccc(C(F)(F)F)c(OC[C@H]2CCCN2)c1)c1cccnc1Nc1ccc2cn[nH]c2c1 [Example 85, 2-(1H-Indazol-6-ylamino)-N-[3-(pyrrolidin-2-ylmethoxy)-4-trifluoromethyl-phenyl]-nicotinamide]	< 50
O=C1NCCc2ccc(NC(=O)c3cccnc3Nc3ccc4cn[nH]c4c3)cc21 [Example 27, 2-(1H-Indazol-6-ylamino)-N-(1-oxo-1,2,3,4-tetrahydro-isoguinolin-7-yl)-nicotinamide]	< 50
NS(=O)(=O)c1cc(NC(=O)c2cccnc2Nc2ccc3cn[nH]c3c2)ccc1Cl [Example 13, N-3-aminosulfonyl(4-chloro-phenyl)[2-(1H-indazol-6-ylamino)(3-pyridyl)]carboxamide]	< 50
CC1(C)CCC(C)(C)c2cc(NC(=O)c3cccnc3Nc3ccc4cn[nH]c4c3)ccc21 [Example 77, 2-(1H-Indazol-6-ylamino)-N-(5,5,8,8-tetramethyl-5,6,7,8-tetrahydro-naphthalen-2-yl)-nicotinamide]	< 50
CC(C)N1CCC(COc2cc(NC(=O)c3cccnc3Nc3ccc4cn[nH]c4c3)ccc2C(F)(F)C(F)(F)F)CC1 [Example 79, 2-(1H-Indazol-6-ylamino)-N-[3-(1-isopropyl-piperidin-4-ylmethoxy)-4-pentafluoroethyl-phenyl]-nicotinamide]	< 50
O=C(Nc1ccc(-c2ccccc2)cc1)c1cccnc1Nc1ccc2cn[nH]c2c1 [Example 45, [2-(1H-Indazol-6-ylamino)(3-pyridyl)]-N-(4-phenylphenyl)carboxamide]	< 50
CC1(C)CCNc2cc(NC(=O)c3cccnc3Nc3ccc4c(c3)C(=O)NC4)ccc21 [Example 629, N-(4,4-Dimethyl-1,2,3,4-tetrahydro-isoguinolin-7-yl)-2-(1-oxo-2,3-dihydro-1H-isoindol-4-ylamino)-nicotinamide]	< 50
CC1(C)CN(C2CCNCC2)c2cc(NC(=O)c3cccnc3Nc3ccc4cn[nH]c4c3)ccc21 [Example 100, N-(3,3-Dimethyl-1-piperidin-4-yl-2,3-dihydro-1H-indol-6-yl)-2-(1H-indazol-6-ylamino)-nicotinamide]	< 50
CC(C)Oc1ccc(NC(=O)c2cccnc2Nc2ccc3cn[nH]c3c2)cc1 [Example 28, [2-(1H-Indazol-6-ylamino)(3-pyridyl)]-N-[4-(methylethoxy)phenyl]carboxamide]	< 50
O=C(Nc1cc(OCC2CCNCC2)cc(C(F)(F)F)c1)c1cccnc1Nc1ccc2cn[nH]c2c1 [Example 75, 2-(1H-Indazol-6-ylamino)-N-[3-(piperidin-4-ylmethoxy)-5-trifluoromethyl-phenyl]-nicotinamide]	< 50
CN1CCN(CCCc2ccc(NC(=O)c3cccnc3Nc3ccc4cn[nH]c4c3)cc2)CC1 [Example 61, [2-(1H-Indazol-6-ylamino)(3-pyridyl)]-N-{4-[3-(4-methylpiperazinyl)propyl]phenyl}carboxamide]	< 50
O=C(Nc1cc(OC2CCNCC2)cc(C(F)(F)F)c1)c1cccnc1Nc1ccc2cn[nH]c2c1 [Example 74, 2-(1H-Indazol-6-ylamino)-N-[3-(piperidin-4-yloxy)-5-trifluoromethyl-phenyl]-nicotinamide]	< 50
O=C(Nc1ccc(C(F)(F)C(F)(F)F)c(CN2CCOCC2)c1)c1cccnc1Nc1ccc2cn[nH]c2c1 [Example 110, 2-(1H-Indazol-6-ylamino)-N-(3-morpholin-4-ylmethyl-4-pentafluoroethyl-phenyl)-nicotinamide]	< 50
O=C(Nc1ccc(C(OC[C@@H]2CCCN2)(C(F)(F)F)C(F)(F)F)cc1)c1cccnc1Nc1ccc2cn[nH]c2c1 [Example 607, 2-(1H-Indazol-6-ylamino)-N-{4-[2,2,2-trifluoro-1-(pyrrolidin-2-ylmethoxy)-1-trifluoromethyl-ethyl]-phenyl}-nicotinamide]	< 50
